The results in this text go back to patent US10246439B2, “Apoptosis signal-regulating kinase 1 inhibitors and methods of use thereof” (ENANTA PHARMACEUTICALS, INC., priority 2017, dated 2019).

Some results are limits rather than exact numbers.

For this experiment, the target named is T1, ASK1 (Homo sapiens, UniProt Q99683).
T1 construct: purchased Thermofisher PV4011
T1 sequence (Q99683 1-1374): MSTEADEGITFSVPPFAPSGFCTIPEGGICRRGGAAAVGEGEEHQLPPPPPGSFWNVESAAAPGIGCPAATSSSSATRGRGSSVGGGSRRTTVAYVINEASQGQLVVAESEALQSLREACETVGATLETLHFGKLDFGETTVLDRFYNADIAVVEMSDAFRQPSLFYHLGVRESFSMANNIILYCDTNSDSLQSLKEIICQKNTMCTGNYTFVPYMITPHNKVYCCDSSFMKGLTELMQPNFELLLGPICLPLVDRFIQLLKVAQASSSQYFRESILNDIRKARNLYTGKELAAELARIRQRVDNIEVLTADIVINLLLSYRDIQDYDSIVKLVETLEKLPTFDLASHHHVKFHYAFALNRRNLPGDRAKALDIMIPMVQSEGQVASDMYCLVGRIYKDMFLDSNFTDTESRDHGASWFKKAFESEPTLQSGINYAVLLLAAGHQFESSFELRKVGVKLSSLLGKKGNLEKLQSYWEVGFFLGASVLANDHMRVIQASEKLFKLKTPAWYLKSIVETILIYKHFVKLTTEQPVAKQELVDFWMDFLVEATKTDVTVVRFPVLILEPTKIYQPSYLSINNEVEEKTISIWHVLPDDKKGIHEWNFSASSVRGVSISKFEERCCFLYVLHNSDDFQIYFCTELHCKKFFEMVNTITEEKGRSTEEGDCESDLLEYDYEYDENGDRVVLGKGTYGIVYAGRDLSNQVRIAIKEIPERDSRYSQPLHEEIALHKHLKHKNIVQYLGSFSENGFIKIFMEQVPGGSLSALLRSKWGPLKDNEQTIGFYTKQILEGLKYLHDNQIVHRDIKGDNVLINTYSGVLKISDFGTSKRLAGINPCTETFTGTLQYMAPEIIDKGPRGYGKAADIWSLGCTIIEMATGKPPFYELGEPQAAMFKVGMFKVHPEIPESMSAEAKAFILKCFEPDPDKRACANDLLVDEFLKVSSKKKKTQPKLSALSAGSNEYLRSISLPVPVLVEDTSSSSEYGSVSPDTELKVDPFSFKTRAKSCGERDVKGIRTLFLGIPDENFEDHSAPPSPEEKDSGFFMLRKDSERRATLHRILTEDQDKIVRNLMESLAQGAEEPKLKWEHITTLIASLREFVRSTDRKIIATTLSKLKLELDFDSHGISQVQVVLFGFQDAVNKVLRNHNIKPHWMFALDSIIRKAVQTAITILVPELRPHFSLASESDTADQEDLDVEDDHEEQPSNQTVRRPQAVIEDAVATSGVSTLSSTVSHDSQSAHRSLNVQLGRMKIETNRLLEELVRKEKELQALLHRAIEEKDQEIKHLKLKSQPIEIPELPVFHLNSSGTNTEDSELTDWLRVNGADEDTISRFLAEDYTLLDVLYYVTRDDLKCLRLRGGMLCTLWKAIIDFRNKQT
As to the kind of experiment: HTRF KinEASE-STK TR-FRET kinase assay, inhibition of ASK1. In kind it is biochemical. Particulars: 5 nM ASK1, 1 uM STK3 peptide substrate, 100 uM ATP. As for the experimental part:
ASK1 was purchased from Thermofisher (Catalogue # PV4011), ATP was purchased from Sigma (Catalogue # A7699), HTRF® KinEASE™ Assay System was obtained from Cisbio (Bedford, Mass.). ½ Area plate was purchased from Perkin Elmer (Catalogue # #6005560). HTRF® KinEASE™-STK is a generic method for measuring serine/threonine kinase activities using a time-resolved fluorescence resonance energy transfer (TR-FRET) immunoassay. The IC50 value for each compound was determined in the presence of compound (various concentration from 0 to 10 μM) and a fixed amount of ATP and peptide substrates. The test compound, 1 uM STK3 peptide substrate, and 5 nM of ASK1 kinase are incubated with kinase reaction buffer containing 50 mM HEPES pH 7.5, 0.01% BRIJ-35, 10 mM MgCl2, and 1 mM EGTA for 30 minutes. 100 uM ATP is added to start kinase reaction and incubated for 3 hours. The STK3-antibody labeled with Eu^3+-Cryptate and 125 nM streptavidin-XL665 are mixed in a single addition with stop reagents provided by the Cisbio kit used to stop the kinase reaction. Fluorescence is detected using an Envision Multilabeled 2014 reader from PerkinElmer. The Fluorescence is measured at 615 nm (Cryptate) and 665 nm (XL665) and a ratio of 665 nm/615 nm is calculated for each well. The resulting TR-FRET is proportional to the phosphorylation level. Staurosporine was used as the positive control. IC50 was determined by XLfit 5.3.
(In general: Time-resolved FRET reads energy transfer from a long-lived donor to a nearby acceptor.)

As a reminder, the IC50 is the midpoint of a concentration-inhibition curve. A high value points to a need for much substance.

Regarding `CC(C)n1cnnc1-c1cccc(NC(=O)c2ccc3nc(-c4ccc(C(C)(C)C)cc4)sc3c2)n1` [Example 58, 2-(4-(tert-butyl)phenyl)-N-(6-(4-isopropyl-4H-1,2,4-triazol-3-yl)pyridin-2-yl)benzo[d]thiazole-6-carboxamide], the IC50 was over 1000 nM.
The value for `CC(C)n1nnnc1-c1cccc(NC(=O)c2cc3sc(N(C)CC4CC4)nc3cc2F)n1` [Example 39] was over 1000 nM; that for `CC(C)n1cnnc1-c1cccc(NC(=O)c2cc3sc(N(C)C4CC4)nc3cc2F)n1` [Example 10] was 1 to 10 nM; that for `CC(C)n1nnnc1-c1cccc(NC(=O)c2cc3sc(N4CCC4)nc3cc2F)n1` [Example 45] was over 1000 nM.
For `CC(C)n1nnnc1-c1cccc(NC(=O)c2cc3sc(C4CC4)nc3cn2)n1` [Example 70] the value was over 1000 nM.
For `CC(C)n1cnnc1-c1cccc(NC(=O)c2ccc3nc(N4CCC4)sc3c2)n1` [Example 21] the value was 100 to 1000 nM; for `CC(C)n1nnnc1-c1cccc(NC(=O)c2cc3sc(C4CCC4)nc3cc2F)n1` [Example 36], 100 to 1000 nM; for `CC(C)n1cnnc1-c1cccc(NC(=O)c2cc3sc(N(C)C)nc3cc2F)n1` [Example 14], 1 to 10 nM.
In turn, `CC(C)N(c1nc2ccc(C(=O)Nc3cccc(-c4nncn4C(C)C)n3)cc2s1)C(C)C` [Example 53, 2-(diisopropylamino)-N-(6-(4-isopropyl-4H-1,2,4-triazol-3-yl)pyridin-2-yl)benzo[d]thiazole-6-carboxamide] returned an IC50 of 10 to 100 nM.
For `CC(C)n1cnnc1-c1cccc(NC(=O)c2cc3sc(N4CCN(C(C)(C)C)CC4)nc3cc2F)n1` [Example 15], the IC50 fell in the range of 10 to 100 nM.
For `CC(C)n1cnnc1-c1cccc(NC(=O)c2cc3sc(N(C)C)nc3cn2)n1` [Example 64], the IC50 fell in the range of 10 to 100 nM.
Turning to `CC(C)n1cnnc1-c1cccc(NC(=O)c2cc3sc(N(C)CC4CC4)nc3cc2F)n1` [Example 11], the IC50 was 1 to 10 nM.
`CNc1nc2cc(F)c(C(=O)Nc3cccc(-c4nnnn4C(C)C)n3)cc2s1` [Example 33] returned an IC50 of over 1000 nM.
For `CC(C)n1cnnc1-c1cccc(NC(=O)c2ccc3nc(N4CCN(C5CC5)CC4)sc3c2)n1` [Example 55] the value was 100 to 1000 nM; for `CC(C)n1nnnc1-c1cccc(NC(=O)c2cc3sc(N(C)C4CCCCC4)nc3cc2F)n1` [Example 44], over 1000 nM.
For `CC(C)n1nnnc1-c1cccc(NC(=O)c2cc3sc(C4CC4)nc3cc2F)n1` [Example 31] the value was over 1000 nM.
The value for `CC(C)n1cnnc1-c1cccc(NC(=O)c2cc3sc(C4CC4)nc3cc2F)n1` [Example 7, 2-cyclopropyl-5-fluoro-N-(6-(4-isopropyl-4H-1,2,4-triazol-3-yl)pyridin-2-yl)benzo[d]thiazole-6-carboxamide] was 10 to 100 nM.
On to `CC(C)n1nnnc1-c1cccc(NC(=O)c2cc3sc(N4CCC(C(C)(C)C)CC4)nc3cc2F)n1` [Example 41], for which the IC50 is over 1000 nM.
`CC(C)n1nnnc1-c1cccc(NC(=O)c2cc3sc(N4CCN(C(C)(C)C)CC4)nc3cc2F)n1` [Example 3, 2-(4-(tert-butyl)piperazin-1-yl)-5-fluoro-N-(6-(1-isopropyl-1H-tetrazol-5-yl)pyridin-2-yl)benzo[d]thiazole-6-carboxamide] had an IC50 of over 1000 nM.
With `CC(C)n1cnnc1-c1cccc(NC(=O)c2ccc3nc(N4CCC(C(C)(C)C)CC4)sc3c2)n1` [Example 25], the IC50 lay within 100 to 1000 nM.
For `CC(C)n1cnnc1-c1cccc(NC(=O)c2cc3sc(N4CCN(C5CC5)CC4)nc3cc2F)n1` [Example 12] the value was 1 to 10 nM; for `CC(C)n1nnnc1-c1cccc(NC(=O)c2cc3sc(NC4CCCCC4)nc3cc2F)n1` [Example 34], over 1000 nM; for `CCN(CC)c1nc2ccc(C(=O)Nc3cccc(-c4nncn4C(C)C)n3)cc2s1` [Example 57], 10 to 100 nM.
With `CC(C)n1nnnc1-c1cccc(NC(=O)c2cc3sc(N(C)C)nc3cn2)n1` [Example 75], the IC50 is 10 to 100 nM.
The value for `CC(C)n1cnnc1-c1cccc(NC(=O)c2cc3sc(N4CCC(C(C)(C)C)CC4)nc3cc2F)n1` [Example 29] was 10 to 100 nM; that for `CC(C)n1cnnc1-c1cccc(NC(=O)c2cc3sc(NC4CCCCC4)nc3cc2F)n1` [Example 26] was 1 to 10 nM; that for `CC(C)n1cnnc1-c1cccc(NC(=O)c2ccc3nc(N4CCC(F)(F)CC4)sc3c2)n1` [Example 19] was 10 to 100 nM.
In turn, `CC(C)n1cnnc1-c1cccc(NC(=O)c2cc3sc(N4CCC4)nc3cc2F)n1` [Example 28] showed an IC50 of 1 to 10 nM.
`CC(C)n1nnnc1-c1cccc(NC(=O)c2cc3sc(N4CCC(C(C)(C)C)CC4)nc3cn2)n1` [Example 68] showed an IC50 of over 1000 nM.
The value for `CC(C)n1cnnc1-c1cccc(NC(=O)c2cc3sc(N4CCOCC4)nc3cc2F)n1` [Example 16] was 1 to 10 nM; that for `CCCCNc1nc2cc(F)c(C(=O)Nc3cccc(-c4nnnn4C(C)C)n3)cc2s1` [Example 40] was over 1000 nM.
For `CC(C)n1nnnc1-c1cccc(NC(=O)c2cc3sc(C4CCC4)nc3cn2)n1` [Example 69] the value was over 1000 nM; for `CC(C)n1nnnc1-c1cccc(NC(=O)c2cc3sc(N4CCOCC4)nc3cc2F)n1` [Example 46], 10 to 100 nM.
